Source: US9409952B2, “Peptide-compound cyclization method” (Chugai Seiyaku Kabushiki Kaisha, priority 2011, dated 2016)
Starred links: 1 amine or outer side, 2 acyl side, 3 side chain; linkers in the order of their positions; H or OH if unused. Positions of bridges follow the written chain, without caps; N, C: chain ends. Non-standard residues stand in square brackets, D forms with d. Residues, ends and D or L forms follow the SMILES beside them. *: point of attachment. NMeF = CN[C@@H](Cc1ccccc1)C(=O)O; NMeGABA = CN(CCCC(=O)[*:2])[*:1]; NMeβAla = CN(CCC(=O)[*:2])[*:1]; NMeL = CN[C@@H](CC(C)C)C(=O)O; NMeV = CN[C@H](C(=O)O)C(C)C; NMeA = CN[C@@H](C)C(=O)O; Piperidide = C1CCN(*)CC1; dNMeA = CN[C@H](C)C(=O)O; Sar = CNCC(=O)O

Tests used:
[1] = PAMPA (parallel artificial membrane permeability assay); format: in vitro ADME; conditions: PAMPA; membrane permeation rate (Pe); 50 mM MOPSO buffer pH 6.5 with 5.0% glycocholic acid, 37° C., 18 hours; read-out: iPAMPA Pe
Outline: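 Artificial membrane was 10% (w/v) egg lecithin plus 0.5% (w/v) cholesterol in dodecane on a PVDF filter. A 10 mM DMSO stock was added at 0.5% (v/v) to donor buffer (50 mM MOPSO, pH 6.5, 5.0% glycocholic acid). After 18 h at 37 °C, LC/MS or LC/UV gave donor and acceptor levels for Pe.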

[2] = Metabolic stability in human hepatic microsome; format: in vitro ADME; conditions: microsomes, pH 7.4; human hepatic microsome, NADPH(+); read-out: CL NADPH(+)

Compound	Papp at 18 hours, 50 µM [1] [×10⁻⁶ cm/s]	microsomal CLint at 1 uM [2] [µL/min/mg]
CC[C@H](C)[C@@H]1NC(=O)CCCN(C)C(=O)C[C@@H](C(=O)N2CCCCC2)NC(=O)[C@H](Cc2ccccc2)N(C)C(=O)[C@H](CC(C)C)N(C)C(=O)CN(C)C(=O)[C@H]([C@@H](C)O)NC(=O)[C@H](C)N(C)C(=O)[C@H](C(C)C)N(C)C(=O)[C@H](C)NC(=O)[C@H](CC(C)C)N(C)C(=O)[C@H](Cc2ccccc2)N(C)C1=O [DP-468] ([NMeGABA]I[NMeF][NMeL]A[NMeV][NMeA]T[Sar][NMeL][NMeF]D-Piperidide; lactam N-12)	27	53
CC(C)C[C@@H]1NC(=O)[C@H](Cc2ccccc2)N(C)C(=O)[C@H](C)N(C)C(=O)C[C@@H](C(=O)N2CCCCC2)NC(=O)[C@H](Cc2ccccc2)N(C)C(=O)[C@H](C)N(C)C(=O)[C@H]([C@@H](C)O)NC(=O)CN(C)C(=O)[C@H](C)N(C)C(=O)[C@H](C)NC(=O)[C@H](C(C)C)N(C)C(=O)[C@H](CC(C)C)N(C)C1=O [DP-469] ([NMeA][NMeF]L[NMeL][NMeV]A[NMeA][Sar]T[NMeA][NMeF]D-Piperidide; lactam N-12)	14	23
CC(C)C[C@@H]1NC(=O)[C@H](Cc2ccccc2)N(C)C(=O)[C@H](C)NC(=O)[C@H](C)N(C)C(=O)C[C@@H](C(=O)N2CCCCC2)NC(=O)[C@H]([C@@H](C)O)NC(=O)[C@H](C)N(C)C(=O)[C@H](C)N(C)C(=O)[C@H](Cc2ccccc2)NC(=O)CN(C)C(=O)[C@H](C(C)C)N(C)C(=O)[C@H](C)N(C)C1=O [DP-470] ([NMeA]A[NMeF]L[NMeA][NMeV][Sar]F[NMeA][NMeA]TD-Piperidide; lactam N-12)	1.2	11
CC(C)C[C@H]1C(=O)N[C@@H]([C@@H](C)O)C(=O)N(C)CC(=O)N(C)[C@@H](Cc2ccccc2)C(=O)N(C)[C@@H](CC(C)C)C(=O)N(C)[C@@H](Cc2ccccc2)C(=O)N(C)[C@@H](CC(C)C)C(=O)N[C@@H](C)C(=O)N[C@H](C(=O)N2CCCCC2)CC(=O)N(C)CCC(=O)N(C)[C@@H](C)C(=O)N1C [DP-471] ([NMeβAla][NMeA][NMeL]T[Sar][NMeF][NMeL][NMeF][NMeL]AD-Piperidide; lactam N-11)	21	30
CC(C)C[C@@H]1NC(=O)[C@H](C(C)C)NC(=O)[C@H](Cc2ccccc2)NC(=O)CCN(C)C(=O)C[C@@H](C(=O)N2CCCCC2)NC(=O)[C@H](CC(C)C)N(C)C(=O)[C@H](CC(C)C)NC(=O)[C@H](C(C)C)N(C)C(=O)[C@H](CC(C)C)NC(=O)[C@H]([C@@H](C)O)NC(=O)CN(C)C1=O [DP-472] ([NMeβAla]FVL[Sar]TL[NMeV]L[NMeL]D-Piperidide; lactam N-11)	24	52
CC(C)C[C@H]1C(=O)N(C)[C@@H](C(C)C)C(=O)N(C)[C@@H](C)C(=O)N[C@H](C(=O)N2CCCCC2)CC(=O)N(C)CCC(=O)N[C@@H]([C@@H](C)O)C(=O)N[C@@H](C)C(=O)N(C)[C@@H](C)C(=O)N(C)[C@@H](Cc2ccccc2)C(=O)N(C)[C@@H](CC(C)C)C(=O)N[C@@H](Cc2ccccc2)C(=O)N1C [DP-473] ([NMeβAla]TA[NMeA][NMeF][NMeL]F[NMeL][NMeV][NMeA]D-Piperidide; lactam N-11)	14	82
CC(C)C[C@H]1C(=O)N[C@@H](C)C(=O)N(C)[C@@H](Cc2ccccc2)C(=O)N(C)[C@@H](C(C)C)C(=O)N[C@@H](Cc2ccccc2)C(=O)N(C)[C@@H](C)C(=O)N(C)[C@@H](C)C(=O)N[C@H](C(=O)N2CCCCC2)CC(=O)N(C)[C@H](C)C(=O)N[C@@H]([C@@H](C)O)C(=O)N(C)[C@@H](C)C(=O)N1C [DP-474] ([dNMeA]T[NMeA][NMeL]A[NMeF][NMeV]F[NMeA][NMeA]D-Piperidide; lactam N-11)	13	129
CC[C@H](C)[C@@H]1NC(=O)[C@H](CC(C)C)NC(=O)[C@@H](C)N(C)C(=O)C[C@@H](C(=O)N2CCCCC2)NC(=O)[C@H](C(C)C)N(C)C(=O)[C@H](CC(C)C)NC(=O)[C@H](Cc2ccccc2)NC(=O)[C@H]([C@@H](C)O)NC(=O)[C@H](CC(C)C)NC(=O)CN(C)C(=O)[C@H](C)NC1=O [DP-475] ([dNMeA]LIA[Sar]LTFL[NMeV]D-Piperidide; lactam N-11)	16	35
CC(C)C[C@H]1C(=O)N(C)[C@@H](C)C(=O)N[C@@H]([C@@H](C)O)C(=O)N(C)[C@@H](C)C(=O)N(C)[C@@H](CC(C)C)C(=O)N(C)[C@@H](Cc2ccccc2)C(=O)N[C@H](C(=O)N2CCCCC2)CC(=O)N(C)[C@H](C)C(=O)N(C)[C@@H](C)C(=O)N[C@@H](C)C(=O)N(C)[C@@H](C)C(=O)N1C [DP-476] ([dNMeA][NMeA]A[NMeA][NMeL][NMeA]T[NMeA][NMeL][NMeF]D-Piperidide; lactam N-11)	2.8	10
CC[C@H](C)[C@@H]1NC(=O)[C@H](Cc2ccccc2)N(C)C(=O)CN(C)C(=O)[C@H]([C@@H](C)O)NC(=O)[C@H](CC(C)C)NC(=O)[C@H](CC(C)C)N(C)C(=O)[C@H](C)N(C)C(=O)CCCN(C)C(=O)C[C@@H](C(=O)N2CCCCC2)NC(=O)[C@H](Cc2ccccc2)N(C)C(=O)[C@H](C(C)C)N(C)C1=O [DP-477] ([NMeGABA][NMeA][NMeL]LT[Sar][NMeF]I[NMeV][NMeF]D-Piperidide; lactam N-11)	29	30
CC[C@H](C)[C@@H]1NC(=O)[C@H](CC(C)C)NC(=O)[C@H](C(C)C)NC(=O)[C@H](CC(C)C)N(C)C(=O)[C@H](CC(C)C)NC(=O)[C@H](Cc2ccccc2)NC(=O)[C@H]([C@@H](C)O)NC(=O)[C@H](C)N(C)C(=O)[C@H](CC(C)C)NC(=O)[C@H](C)N(C)C(=O)C[C@@H](C(=O)N2CCCCC2)NC1=O [DP-478] ([NMeA]L[NMeA]TFL[NMeL]VLID-Piperidide; lactam N-11)	18	50
CC(C)C[C@@H]1NC(=O)[C@H](CC(C)C)N(C)C(=O)[C@H](C(C)C)N(C)C(=O)[C@H](C)NC(=O)CN(C)C(=O)[C@H](Cc2ccccc2)NC(=O)[C@H]([C@@H](C)O)NC(=O)[C@H](CC(C)C)N(C)C(=O)[C@H](C)N(C)C(=O)C[C@@H](C(=O)N2CCCCC2)NC(=O)[C@H](CC(C)C)N(C)C1=O [DP-479] ([NMeA][NMeL]TF[Sar]A[NMeV][NMeL]L[NMeL]D-Piperidide; lactam N-11)	46	183
CC(C)C[C@H]1C(=O)N(C)[C@@H](C)C(=O)N[C@H](C(=O)N2CCCCC2)CC(=O)N(C)[C@@H](C)C(=O)N(C)[C@@H](C)C(=O)N[C@@H](C)C(=O)N(C)[C@@H](C)C(=O)N(C)[C@@H](CC(C)C)C(=O)N(C)[C@@H](Cc2ccccc2)C(=O)N[C@@H]([C@@H](C)O)C(=O)N(C)[C@@H](C)C(=O)N1C [DP-480] ([NMeA][NMeA]A[NMeA][NMeL][NMeF]T[NMeA][NMeL][NMeA]D-Piperidide; lactam N-11)	6.6	15
CC[C@H](C)[C@@H]1NC(=O)[C@H](C)N(C)C(=O)C[C@@H](C(=O)N2CCCCC2)NC(=O)[C@H](Cc2ccccc2)NC(=O)[C@H](CC(C)C)N(C)C(=O)[C@H](C(C)C)N(C)C(=O)[C@H](C)N(C)C(=O)[C@H]([C@@H](C)O)NC(=O)[C@H](Cc2ccccc2)N(C)C(=O)[C@H](C)N(C)C(=O)[C@H](CC(C)C)N(C)C1=O [DP-481] ([NMeA]I[NMeL][NMeA][NMeF]T[NMeA][NMeV][NMeL]FD-Piperidide; lactam N-11)	31	82
CC(C)C[C@H]1C(=O)N(C)[C@@H](C)C(=O)N(C)[C@@H](Cc2ccccc2)C(=O)N[C@@H]([C@@H](C)O)C(=O)N(C)CC(=O)N(C)[C@@H](Cc2ccccc2)C(=O)N(C)[C@@H](CC(C)C)C(=O)N[C@@H](C)C(=O)N[C@H](C(=O)N2CCCCC2)CC(=O)N(C)[C@@H](C)C(=O)N(C)[C@@H](C)C(=O)N1C [DP-482] ([NMeA][NMeA][NMeL][NMeA][NMeF]T[Sar][NMeF][NMeL]AD-Piperidide; lactam N-11)	3.7	11
CC[C@H](C)[C@@H]1NC(=O)[C@H](C)NC(=O)C[C@@H](C(=O)N(C)[C@@H](Cc2ccccc2)C(=O)N[C@@H](C)C(=O)N2CCCCC2)NC(=O)[C@H](Cc2ccccc2)NC(=O)[C@H](C)N(C)C(=O)[C@H](C(C)C)N(C)C(=O)CN(C)C(=O)[C@H]([C@@H](C)O)NC(=O)[C@H](Cc2ccccc2)N(C)C(=O)[C@H](CC(C)C)N(C)C(=O)[C@H](CC(C)C)N(C)C1=O [DP-483] (AI[NMeL][NMeL][NMeF]T[Sar][NMeV][NMeA]FD[NMeF]A-Piperidide; lactam N-11)	18	23
CC(C)C[C@@H]1NC(=O)[C@H](Cc2ccccc2)N(C)C(=O)[C@H](C(C)C)N(C)C(=O)CN(C)C(=O)[C@H]([C@@H](C)O)NC(=O)[C@H](Cc2ccccc2)N(C)C(=O)[C@H](CC(C)C)N(C)C(=O)[C@H](CC(C)C)N(C)C(=O)[C@H](C)NC(=O)[C@@H](C(C)C)NC(=O)C[C@@H](C(=O)N(C)[C@@H](Cc2ccccc2)C(=O)N[C@@H](C)C(=O)N2CCCCC2)NC1=O [DP-484] ([dV]A[NMeL][NMeL][NMeF]T[Sar][NMeV][NMeF]LD[NMeF]A-Piperidide; lactam N-11)	13	29
CC[C@H](C)[C@@H]1NC(=O)[C@H](C(C)C)N(C)C(=O)[C@H](C)N(C)C(=O)[C@H]([C@@H](C)O)NC(=O)[C@@H](C)N(C)C(=O)C[C@@H](C(=O)N2CCCCC2)NC(=O)[C@H](C)NC(=O)[C@H](Cc2ccccc2)N(C)C(=O)CN(C)C(=O)[C@H](CC(C)C)N(C)C1=O [DP-485] ([dNMeA]T[NMeA][NMeV]I[NMeL][Sar][NMeF]AD-Piperidide; lactam N-10)	5.9	45
